# According to ChEMBL document CHEMBL4840355, “Antitumor and toxicity study of mitochondria-targeted triptolide derivatives using triphenylphosphine (TPP+) as a carrier” (Bioorg Med Chem, 2021):
# pIC50: −log10 of the molar value. Activity calls are given as the source filed them. The calls are words filed in the database; no cut-off is given here.
# Tests used:
# [1] = tested on: L02; experiment: Cytotoxicity against human HL7702 cells assessed as inhibition of cell proliferation measured after 48 hrs by MTT assay; assay type: cell-based; details: L02, 48 h
# [2] = tested on: PANC-1; experiment: Cytotoxicity against human PANC-1 cells assessed as inhibition of cell proliferation measured after 48 hrs by MTT assay; assay type: functional, cell-based; details: PANC-1, 48 h
# [3] = Cytotoxicity against human HBE cells assessed as inhibition of cell proliferation measured after 48 hrs by MTT assay; assay type: cell-based
# [4] = tested on: NCI-H1299; experiment: Cytotoxicity against human NCI-H1299 cells assessed as inhibition of cell proliferation measured after 48 hrs by MTT assay; assay type: functional, cell-based; details: NCI-H1299, 48 h
# [5] = tested on: HepG2; experiment: Induction of apoptosis in human HepG2 cells assessed as induction of morphological changes by measuring nuclear shrinkage and cleavage at 25 to 100 nM measured after 48 hrs by DAPI staining based inverted fluorescence microscope analysis; assay type: functional, cell-based; details: dose 25-100 nM
# [6] = tested on: HepG2; experiment: Induction of apoptosis in human HepG2 cells assessed as live cells at 50 nM measured after 48 hrs by Annexin V-FITC/PI double staining based flow cytometry analysis (Rvb= 94.8%); assay type: functional
# [7] = tested on: HepG2; experiment: Induction of apoptosis in human HepG2 cells assessed as late apoptotic cells at 50 nM measured after 48 hrs by Annexin V-FITC/PI double staining based flow cytometry analysis (Rvb= 2.89%); assay type: functional
# [8] = tested on: HepG2; experiment: Induction of apoptosis in human HepG2 cells assessed as late apoptotic cells at 100 nM measured after 48 hrs by Annexin V-FITC/PI double staining based flow cytometry analysis (Rvb= 2.89%); assay type: functional
# [9] = tested on: HepG2; experiment: Induction of apoptosis in human HepG2 cells assessed as necrotic cells at 100 nM measured after 48 hrs by Annexin V-FITC/PI double staining based flow cytometry analysis (Rvb= 0.13%); assay type: functional
# [10] = tested on: HepG2; experiment: Induction of apoptosis in human HepG2 cells assessed as early apoptotic cells at 150 nM measured after 48 hrs by Annexin V-FITC/PI double staining based flow cytometry analysis (Rvb= 2.16%); assay type: functional
# [11] = tested on: HepG2; experiment: Induction of mitochondrial membrane potential loss in human HepG2 cells assessed as proportion of cells with depolarized mitochondria at 50 nM measured after 48 hrs by JC-1 staining based flow cytometry analysis (Rvb= 9.1%); assay type: functional
# [12] = tested on: HepG2; experiment: Induction of mitochondrial membrane potential loss in human HepG2 cells assessed as proportion of cells with depolarized mitochondria at 100 nM measured after 48 hrs by JC-1 staining based flow cytometry analysis (Rvb= 9.1%); assay type: functional
# [13] = tested on: HepG2; experiment: Induction of mitochondrial membrane potential loss in human HepG2 cells assessed as proportion of cells with hyperpolarized mitochondria at 200 nM measured after 48 hrs by JC-1 staining based flow cytometry analysis (Rvb= 80.9%); assay type: functional
# [14] = tested on: HepG2; experiment: Induction of mitochondrial membrane potential loss in human HepG2 cells assessed as proportion of cells with depolarized mitochondria at 200 nM measured after 48 hrs by JC-1 staining based flow cytometry analysis (Rvb= 9.1%); assay type: functional
# [15] = tested on: HepG2; experiment: Antitumor activity against human HepG2 cells xenografted in zebra fish AB assessed as tumor growth inhibition at 1 uM measured after 48 hrs by fluorescence microscopic analysis; assay type: functional, cell-based
# [16] = Toxicity in zebrafish AB assessed as increase in hatching rate at 0.05 to 2 uM measured at 72 hrs postfertilization; parameters: species or system Danio rerio; details: in vivo, dose 0.05-2 µM
structure (smiles),measurement,setting,value
CC(C)[C@]12O[C@H]1[C@@H]1O[C@]13[C@]1(O[C@H]1C[C@H]1C4=C(CC[C@@]13C)C(=O)OC4)[C@@H]2OC(=O)CCCCC[P+](c1ccccc1)(c1ccccc1)c1ccccc1.[Br-],pIC50,[1],6.48
same,pIC50,[2],6.46
same,pIC50,[3],6.68
same,pIC50,[4],6.60
same,Activity,[5],Active
same,Activity,[6],91.2%
same,Activity,[7],1.23%
same,Activity,[8],12.1%
same,Activity,[9],0.18%
same,Activity,[10],33.7%
same,Activity,[11],25.3%
same,Activity,[12],45.6%
same,Activity,[13],44.3%
same,Activity,[14],55.7%
same,Activity,[15],Active
same,Activity,[16],Non-Toxic
